Experiment [1] concerns P. aeruginosa PAO1. In words: Elastase B production in P. aeruginosa PAO1 culture supernatants (elastin-Congo red). In kind it is cell-based, Pseudomonas aeruginosa. As to conditions: compound alone 100 μM; % elastase relative to DMSO; FIG. 12A. The method, then:
FIG. 12A is a graph comparing inhibition of elastase (as % relative to DMSO) for certain compounds of the invention. The amount of indicated compound added was 100 μM. M64 alone or in combination was added in the amount of 20 μM. The assay is conducted as described in Welsh et al. (2016) for compounds shown as well as certain compounds in combination with compound M-64 (Starkey, M. et al. (2014)):
The amount of elastase B in P. aeruginosa culture supernatants was measured following a reported protocol (Welsh et al., 2017 and Geske et al., 2007b) with modifications. A 10 mL overnight culture of P. aeruginosa PAO1 was grown for 16 hr. An inoculating culture was prepared by diluting the overnight culture 1:100 into freshly prepared assay medium, and 2 mL aliquots of this subculture were added to each test tube (0.5% DMSO, final). The cultures were grown for 17 hr, and the final cell density measured by reading OD600. […]
To quantify elastase B activity, the undigested elastin was pelleted by centrifugation of the assay plate at […] for 10 min, after which […] of the supernatant was transferred to a new, clear 96-well plate, and the absorbance at 490 nm measured. Media background absorbance (measured from a “no bacteria” control) was subtracted, the resulting values growth normalized by dividing by the final OD600, and the data plotted relative to a DMSO-treated positive control.

Experiment [2] deals with P. aeruginosa PAO1. As to conditions: earlier reports; cited from earlier work.
Experiment [3] deals with T1, LasR (Pseudomonas aeruginosa, UniProt P25084). Type of experiment: cell-based. As to conditions: measured vs 25 nM OdDHL. An excerpt:
(§1) Methods for assessing LasR activation and inhibition are known in the art. More specifically methods as described in Moore et al. 2015 are used herein to assess activation and inhibition.
IC50 is the concentration of an inhibitor where the response or binding is reduced by half (half maximal inhibitory concentration).

In experiment [4] the target is T1, LasR. In words: LasR activation (agonism) assay, methods of Moore et al. 2015. In kind it is cell-based. As to conditions: at high concentrations; FIGS. 8B, 9B, 10B.
Excerpt: as §1
FIGS. 8A and 8B compare % LasR inhibition (8A) with % LasR activation (8B) for control compound V-06-018.
FIGS. 9A and 9B compare % LasR inhibition (9A) with % LasR activation (9B) for compound 33.
FIGS. 10A and 10B compare % LasR inhibition (10A) with % LasR activation (10B) for compound 32 (thiophene analog of compound 33).

T1 sequence (P25084 whole entry): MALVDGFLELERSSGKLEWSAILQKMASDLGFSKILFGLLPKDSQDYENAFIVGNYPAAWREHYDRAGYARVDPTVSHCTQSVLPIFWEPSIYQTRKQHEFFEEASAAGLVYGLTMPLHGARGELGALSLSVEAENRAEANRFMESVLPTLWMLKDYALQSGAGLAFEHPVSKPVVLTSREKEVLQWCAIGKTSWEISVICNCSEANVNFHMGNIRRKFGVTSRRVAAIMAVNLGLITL

For orientation: IC50 means the midpoint of a concentration-inhibition curve. Consider `CCCCCCCCCC(=O)CC(=O)Nc1ccccc1` [Compound V-06-018], for which the “inhibition of production of virulence factor elastase” value with P. aeruginosa PAO1 [1] is recorded as “little or no inhibition”. Further, the “inhibition of elastase production (previously shown)” value with P. aeruginosa PAO1 [2] is “previously been shown to inhibit elastase production”. Further, the “Maximum Inhibition (95% CL)” value at LasR [3] is 87 (91-85) %. At LasR [3] (read-out: IC50 (95% CL)), the IC50 was 2000 nM. Further, the “% LasR activation” value on LasR [4] was “does not exhibit LasR activation”.

The record behind these values is patent US10526278B2, “Inhibitors of quorum sensing receptor LasR” (priority 2017, dated 2020).
